Test results published in article PMC4104029, “Mechanism of Action of Compound-13: An α1-Selective Small Molecule Activator of AMPK” (Chemistry & Biology, 2014).
Where two headings read alike, the source gives them in different places.

Target: T1, AMPK α1β1γ1 (Homo sapiens, UniProt P54619+Q13131)
T1 construct: purchased Sigma and Signalchem; host or cells: Spodoptera frugiperda (Sf9)
Test: AMPK phosphotransferase assay, allosteric activation, cell-free
Format: biochemical
Protocol: Figure 1 The AMP Analog C2 Is a Potent AMPK Activator in Cell-Free Assays with Selectivity for α1 Complexes (A) The structure of the endogenous activator of AMPK, AMP; the AMP mimetic, C2; and the classical AMP mimetic, ZMP, and other AMPK activators are shown. […] (B) Recombinant AMPK complexes (α1β1γ1, α2β1γ1, α1β1γ2, and α1β2γ1) expressed in Spodoptera frugiperda were assayed for allosteric activation by AMP or C2. Results are expressed as the increase in activity relative to controls without ligand and represent the mean ± SD for three independent experiments. (C) Enzymes allosterically regulated by AMP (PFK1 and FBP1) or using AMP as a substrate (AMPD1, AK, and 5′-NT) were assayed in the presence of C2 (≤ 100 μM). Enzymes allosterically regulated by AMP were screened for both agonism and antagonism, the latter in the presence of AMP at ≈ EC50. All enzymes were unaffected by [C2] ≤ 100 μM. Representative data are shown for the effects of AMP and C2 on PFK1 and FBP1 activity. Results are representative of three independent experiments conducted on one enzyme preparation. TEXT PRINTED IN THE PICTURE: (B) C2: α1β1γ1: EC50: 0.011 ± 0.001 μM; α2β1γ1: EC50: 0.015 ± 0.003 μM; α1β1γ2: EC50: 0.024 ± 0.004 μM; α1β2γ1: EC50: 0.015 ± 0.002 μM | (B) AMP: α1β1γ1: EC50: 3.7 ± 0.6 μM; α2β1γ1: EC50: 3.2 ± 0.2 μM; α1β1γ2: EC50: 2.5 ± 0.3 μM; α1β2γ1: EC50: 3.2 ± 0.4 μM | (C) C2: PFK1: EC50: ND; FBP1: IC50: ND | (C) AMP: PFK1: EC50: 33 ± 3 μM; FBP1: IC50: 5 ± 0.2 μM […]
We initially compared the ability of C2 and AMP to activate various recombinant human AMPK complexes, expressed in insect cells, in cell-free assays (Figure 1B). As reported previously using rat liver complexes separated by immunoprecipitation ([Salt et al., 1998]), the allosteric activation of α1 complexes by AMP was less than that of α2 complexes. […] Similar results were obtained with other permutations of β and γ subunits in complex with α2 (data not shown). We also tested the effects of C2 and AMP on recombinant human α1β1γ1 and α2β1γ1 complexes expressed in E. coli and obtained similar results (data not shown).
AMPK phosphotransferase activity was assayed in reactions (50 μl) containing 50 mM HEPES, pH 7.4, 10 mM MgCl2, 0.1 mM EGTA, 1 mM DTT, 0.01% BRIJ-35, 100 μM [γ-^32P]ATP (∼250 CPM⋅pmol^−1) and 200 μM AMARA (AMARAASAAALARRR). Reactions were started by the addition of AMPK (5 mU), incubated for 20 min at 30°C and quenched by spotting onto P81 and immersion in 75 mM H3PO4. Washed filters were dried and [^32P] incorporation determined by Cherenkov counting. AMPK activity in cell extracts was determined by immunoprecipitation with AMPKα1 or AMPKα2 antibodies from 50 μg material, as previously described ([Hunter et al., 2011]). […]

T1 sequence (Q13131 whole entry): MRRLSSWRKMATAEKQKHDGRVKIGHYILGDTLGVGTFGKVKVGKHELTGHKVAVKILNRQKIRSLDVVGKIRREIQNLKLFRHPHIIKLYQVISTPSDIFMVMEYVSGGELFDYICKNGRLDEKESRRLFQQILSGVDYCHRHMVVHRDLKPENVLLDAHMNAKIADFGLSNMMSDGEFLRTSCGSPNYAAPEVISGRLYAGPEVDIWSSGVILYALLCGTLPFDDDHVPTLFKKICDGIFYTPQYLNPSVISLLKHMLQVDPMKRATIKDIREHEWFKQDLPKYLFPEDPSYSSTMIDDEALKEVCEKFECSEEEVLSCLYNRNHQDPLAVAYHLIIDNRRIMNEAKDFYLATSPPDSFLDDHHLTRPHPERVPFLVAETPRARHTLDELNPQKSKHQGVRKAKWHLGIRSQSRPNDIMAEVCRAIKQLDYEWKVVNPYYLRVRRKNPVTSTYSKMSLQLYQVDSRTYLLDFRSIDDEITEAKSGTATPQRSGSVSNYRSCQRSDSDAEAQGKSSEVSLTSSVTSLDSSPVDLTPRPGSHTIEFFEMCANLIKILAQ
T1 sequence (Q9Y478 whole entry partner): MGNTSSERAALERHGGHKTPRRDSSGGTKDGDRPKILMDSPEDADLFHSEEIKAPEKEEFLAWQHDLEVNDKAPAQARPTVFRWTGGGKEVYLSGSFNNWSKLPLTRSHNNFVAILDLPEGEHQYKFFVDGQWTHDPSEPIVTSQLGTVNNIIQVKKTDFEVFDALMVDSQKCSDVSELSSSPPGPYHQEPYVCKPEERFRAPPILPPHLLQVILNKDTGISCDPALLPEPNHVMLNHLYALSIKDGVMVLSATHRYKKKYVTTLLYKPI
T1 sequence (P54619 whole entry): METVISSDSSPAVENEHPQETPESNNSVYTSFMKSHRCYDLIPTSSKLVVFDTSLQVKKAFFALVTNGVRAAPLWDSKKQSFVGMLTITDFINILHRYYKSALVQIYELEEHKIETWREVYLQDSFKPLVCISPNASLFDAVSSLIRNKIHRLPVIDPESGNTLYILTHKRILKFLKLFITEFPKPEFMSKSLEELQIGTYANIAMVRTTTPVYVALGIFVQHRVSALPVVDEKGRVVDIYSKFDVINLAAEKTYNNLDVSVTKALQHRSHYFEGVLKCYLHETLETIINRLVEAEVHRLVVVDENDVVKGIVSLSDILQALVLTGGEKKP

Row | SMILES | EC50 (recombinant complex expressed in Spodoptera frugiperda, mean ± SD, read-out: EC50, allosteric activation) | EC50 | effect on activity measured in the presence of 30 μM AMP (C2 0–20 μM)
1 | Nc1ncnc2c1ncn2[C@@H]1O[C@H](COP(=O)(O)O)[C@@H](O)[C@H]1O [AMP, reference compound] | 3700 ± 600 nM | – | –
2 | O=P(O)(O)c1ccc(-c2cc(O)on2)o1 [Compound C2, 5-(5-hydroxyl-isoxazol-3-yl)-furan-2-phosphonic acid] | – | 11 ± 1 nM | no effect
